Laboratory results: US8946445B2, “Heterocyclic molecules as apoptosis inducers” (Nanjing Allgen Pharma Co. Ltd., priority 2011, dated 2015)

Experiments:
[1] = system: A549 human lung carcinoma cell line; experiment: cell viability (proliferation) assay, Trypan blue exclusion counting, A549; format: cell-based; settings: A549 cells, compound @ 1 μM, 72 hours, vs 1% DMSO control
Experimental: (§1) Anti-oncogenic effects of the compounds of the present invention were evaluated by cell viability (proliferation) assays in H460 non-small cell lung cancer cell line and A549 human lung carcinoma cell line. H460 and A549 were purchased from ATCC (American Type Culture Collection), and they were maintained in RPMI 1640 and DMEM, respectively, with 10% fetal bovine serum. Cell lines were cultured in an incubator with 5% CO2 at 37° C.
(§2) Cells were seeded in 6-well-plates (10^5 cells/ml medium per well) and allowed them to grow for 24 hrs in the incubator. Cells were then treated with 1 μM of tested compounds. Cells treated with 1% DMSO were used as control. 72 hours after treatment, cells were removed by trypsinization and viable cell number was obtained by counting Trypan blue-excluding cells under microscope with a hemocytometer. Experiments were performed in triplicate. Statistical were carried out by analysis of variance (ANOVA) and LSD test for multiple comparisons, with p<0.05 considered significant.

[2] = system: H460 non-small cell lung cancer cell line; experiment: cell viability (proliferation) assay, Trypan blue exclusion counting, H460; format: cell-based; settings: H460 cells, compound @ 1 μM, 72 hours, vs 1% DMSO control
Experimental: as §1, §2

SMILES	Cell Death (%) after 3-day treatment [1]	Cell Death (%) after 3-day treatment [2]
COC1=CC(c2cc3ccccc3[nH]2)=N/C1=C\c1[nH]c(C)cc1C [Obatoclax]	76.6%	88.3%
COC1=CC(c2cc3sc(Cl)cc3[nH]2)=N/C1=C\c1[nH]c(C)cc1C [Example 2, (Z)-2-chloro-5-(2-((3,5-dimethyl-1H-pyrrol-2-yl)methylene)-3-methoxy-2H-pyrrol-5-yl)-4H-thieno[3,2-b]pyrrole]	86.7%	88.6%
